The text below walks through data of patent US6383527B1, “Compositions comprising valerian extracts, isovaleric acid or derivatives thereof with a NSAID” (NPS Pharmaceuticals, Inc., priority 2001, dated 2002).

Structures are written as SMILES.

Series [1] has as its system CNS. The conditions noted are these: in vivo; cited from earlier work.
Series [2] relates to recurrent excessive lower back pain. The series is described as follows: Case report Example 1: valerian preparation and ibuprofen for recurrent, excessive lower back pain. The series is classed as in vivo, human. The conditions noted are these: person; preparation taken by itself. From the text: These examples are provided for purposes of illustration and are not intended to be limiting of the invention. A person was complaining of recurrent excessive lower back pain from prior injuries. During a bout of lower back pain, they stated that […] could not sleep or sit comfortably and was in duress from the constant pain. […] It was stated that the ibuprofen would provide a decrease in inflammation and some analgesic therapy whereas the addition of the valerian and hops extract could provide a decrease in the muscle tone and analgesia as well, thereby allowing for relief from the pain. […] Their spouse stated that […] “acted like a new […]” because they were not grimacing and stooped from pain.

For series [3] the following is noted: acid- and heat-labile; release two moles of isovaleric acid per mole; cited from earlier work.
The test system of series [4] is excessive lower back pain. The series is described as follows: Case report Example 2: valerian preparation and ibuprofen for acute muscle strain from overexertion. Conditions: person; ibuprofen taken alone. Format: in vivo, human. The text has this:
These examples are provided for purposes of illustration and are not intended to be limiting of the invention. A person, complained of excessive lower back pain that interfered with sleeping and the general activities of daily living such as sitting or standing. They had injured their back while shoveling deep snow from their driveway and sidewalk. They had been taking ibuprofen but experiencing little relief. […] They continued to take the combination until their back healed and no longer gave their pain without medication.

The conditions of series [5]: cited from earlier work.
The conditions of series [6]: clinical; cited from earlier work.

With `CCN(CC)C(=O)CC(C)C` [N,N-Diethyl isovaleramide], the CNS properties result in series [1] is “CNS stimulant (convulsant) properties”.
With `CC(=O)Nc1ccc(O)cc1` [acetaminophen], the “relief from lower back pain” value in series [2] was “without any useful sense of relief”.
Regarding `CC(=O)Oc1ccccc1C(=O)O` [aspirin], the “relief from lower back pain” value in series [2] is “without any useful sense of relief”.
For the compound `CC(=O)O[C@H]1C[C@@H]2C(COC(=O)CC(C)C)=CO[C@@H](OC(=O)CC(C)C)[C@@H]2[C@@]12CO2` [didrovaltrate], the “survival in the stomach following oral administration” value in series [3] is given as “do not survive intact”.
With `CC(C)Cc1ccc(C(C)C(=O)O)cc1` (stereo not drawn) [ibuprofen], the “relief from lower back pain” value in series [4] is on record as “little relief”; in series [2] it was “without any useful sense of relief”.
As for `CC(C)CC(N)=O` [isovaleramide], the “acute toxicity in vivo” value in series [5] is “low acute toxicity”. Moreover, in series [6], the anxiolytic properties entry is given as “clinically useful anxiolytic properties”.
As for `CC(=O)OCC1=CO[C@@H](OC(=O)CC(C)C)[C@H]2C1=C[C@H](OC(=O)CC(C)C)[C@]21CO1` [valtrate], the “survival in the stomach following oral administration” value in series [3] is reported as “do not survive intact”.
